Like-named read-outs stand apart in the source and are kept apart here.
Key:
[1] = test system: broiler chickens; conditions: cited from earlier work
[2] = test system: carps
Experimental: A group of 24 carps were distributed over 12 aquaria with 2 fish each. All fish were previously housed in identical conditions, and fed the same diet as the control group in the trial. Every other aquarium was attributed to either a control diet or that control diet supplemented with 500 mg β-alanine per kg. Feeding was done at 1.5% of the body weight, during 2 feeding times/day. To increase the level of oxidative stress, the carps were kept at 27° C. (4° C. above the advised temperature).
The change in bodyweight after the 14 day feeding experiment was measured per fish, but pooled per aquarium as the experimental unit.

[3] = test system: Japanese flounders; conditions: 8.9 g/kg of β-alanine in diet; cited from earlier work
[4] = test system: pigs
Experimental: At 9 weeks of age, 48 pigs (24 gilts and 24 chirurgical castrated barrows) were divided randomly into groups of four pigs of the same gender. Each group was housed in a separate pen resulting in six pens of four gilts and six pens of four barrows. All pigs were fed the same commercial diet and for three of the six pens of gilts and three of the six pens of barrows their diet was supplemented with 500 mg β-alanine per kg (=568 mg or 6.4 mmol β-alanine per kg dry weight). Water was freely available and the animals were fed ad libitum. After 6 weeks (age of 15 weeks) all animals were euthanized by natrium-pentobarbital.

[5] = test system: pigs; conditions: cited from earlier work
[6] = test system: Ross 308 chickens
Experimental: A group of 252 Ross 308 chickens were randomly distributed over 14 pens with 18 animals each. All chickens were previously housed in identical conditions, and fed the same diet as the control group in the trial. Every other pen was attributed to either a control diet or that control diet supplemented with 500 mg β-alanine per kg (=595 mg or 6.7 mmol β-alanine per kg dry weight). Water was freely available from drinking cups, and animals were fed ad libitum. The control diet was a commercial broiler diet (Vanden Avenne, Braadkip 114 MB) with 4% corn oil added to increase the level of oxidative stress, as used in earlier studies (Kalmar et al., 2011).
From the age of 24 days to the age of 48 days, the change in bodyweight was measured per bird, but pooled per pen as the experimental unit. At 42 days of age, one male bird per pen was euthanized by intravenous injection of sodium pentobarbital. From the breast and thigh muscle, a sample was dissected and stored airtight at −20° C. until analysis. The breast muscle sample was taken at about one third from the distal end of the breast.

[7] = test system: chickens; conditions: 22 mmol/kg bodyweight orally twice a day for five days; cited from earlier work
[8] = test system: broiler chickens; conditions: 0.5% of carnosine in broiler feed; cited from earlier work
[9] = 0.5% of β-alanine in feed for 4 weeks
[10] = 1 and 2% of β-alanine in feed for 4 weeks
[11] = 500 mg/kg beta-alanine in diet, 14 days
[12] = 500 mg/kg beta-alanine in diet, 14 days, 27° C.
[13] = 0.225% of β-alanine in pig diet
[14] = β-alanine in combination with histidine
[15] = 500 mg/kg beta-alanine in diet, between 24 and 42 days of age

In the case of NCCC(=O)O [Beta-alanine, β-alanine], the bodyweight gain [1, 9] is listed as “no significant changes”, the feed conversion ratio [1, 9] is listed as “no significant changes” and the bodyweight gain [1, 10] is listed as “decreased significantly”. For the same compound, the feed conversion ratio [1, 10] was “increased”, the Average feed intake [2, 11] was 44.1 g and the feed conversion ratio [2, 11] was 2.7 g:g. The Average weight gain [2, 12] was 19.0 g, the Final bodyweight [2, 12] was 230.1 g and the Initial bodyweight ([2]; baseline, 500 mg/kg group) was 211.1 g. The bodyweight gain [3] was “increased somewhat but not significantly”, the feed conversion ratio [3] was “increased significantly” and the “Bodyweight gain over 6 weeks” value ([4]; 500 mg/kg beta-alanine in diet, 9 to 15 weeks of age) was 25.4. The Final bodyweight ([4]; 500 mg/kg beta-alanine in diet, 15 weeks of age) was 44.1 kg, the “bodyweight at slaughter vs control” value ([4]; 500 mg/kg β-alanine in diet) was “tend to have a higher bodyweight at slaughter” and the “bodyweight gain vs control” value ([4]; 500 mg/kg β-alanine in diet) was “tended to have a higher bodyweight gain”. The “overall growth of the piglets” value ([4]; 500 mg/kg β-alanine in diet) was “increases the overall growth”, the “death or illness during the trial” value ([4]; 500 mg/kg β-alanine in diet, 6 weeks) was “No animals died or became ill” and the Initial bodyweight ([4]; baseline at 9 weeks of age, 500 mg/kg group) was 18.7 kg. The bodyweight gain [5, 13] was “decreased somewhat”, the feed conversion ratio [5, 13] was “decreased somewhat” and the bodyweight gain [5, 14] was “decreased even more”. The feed conversion ratio [5, 14] was “increased to become higher than the control”, the Average daily gain [6, 15] was 108 g and the Final bodyweight [6, 15] was 2.874 kg. For the same compound, the “bodyweight at slaughter vs control” value ([6]; 500 mg/kg β-alanine in diet) was “tended to have a higher bodyweight at slaughter”, the “bodyweight gain vs control” value ([6]; 500 mg/kg β-alanine in diet) was “tended to have a higher bodyweight gain” and the Initial bodyweight ([6]; baseline at 24 days of age, 500 mg/kg group) was 1.362 kg. For the same compound, the bodyweight gain [7] was “also decreased”, the feed consumption [7] was “also decreased” and the feed conversion ratio [7] was “decreased”.
For NCCC(=O)N[C@@H](Cc1c[nH]cn1)C(=O)O [carnosine, β-alanyl-L-histidine], the “chicken meat quantity and quality” value [8] is listed as “improve”, the feed conversion ratio [8] is listed as “improved but not statistically significantly” and the weight gain [8] is listed as “improved but not statistically significantly”.

Reference: patent US20150126603A1, “TREATMENT OF POULTRY, PIGS OR FISH FOR REDUCING THE FEED CONVERSION RATIO OR INCREASING THEIR BODYWEIGHT GAIN” (TAMINCO, priority 2012, published 2015)
